The numbers were not newly measured in US20140141090A1, “Pharmaceutical Composition Comprising Opioid Agonist And Sequestered Antagonist” (priority 2011, published 2014), which cites them from elsewhere.

For data set [1] the following is noted: after oral administration.
Assay in data set [2]: not given
This is another data set of the same source.

Assay in data set [3]: not given
This is another data set of the same source.

Where [4] appears, read: in comparison to a 15 mg dose of hydrocodone.

Where a name gives a salt, the structure may show the parent alone. Read-outs that look alike come from different tables or passages of the source.

Take `COc1ccc2c3c1O[C@H]1[C@@H](O)C=C[C@H]4[C@@H](C2)N(C)CC[C@@]341` [codeine]: under setting [4], the Equianalgesic dose is listed as 90.0 mg.

As to `C[C@H]1[C@H]2Cc3ccc(O)cc3[C@]1(C)CCN2CC1CC1` [cyclazocine], the Duration of action in data set [1] is roughly 24 h.

Regarding `O=C1CC[C@@]2(O)[C@H]3Cc4ccc(O)c5c4[C@@]2(CCN3CC2CC2)[C@H]1O5` [hydrochloride salt of naltrexone, naltrexone hydrochloride], the Solubility in water result in data set [2] was “up to 100 mg/cc”.

Consider `COc1ccc2c3c1O[C@H]1C(=O)CC[C@H]4[C@@H](C2)N(C)CC[C@]314` [hydrocodone], for which the Equianalgesic dose under setting [4] is recorded as 15.0 mg.

Turning to `CN1CC[C@]23CCCC[C@H]2[C@H]1Cc1ccc(O)cc13` [levorphanol], the Equianalgesic dose under setting [4] is reported as 1.8 mg.

On to `CCOC(=O)C1(c2ccccc2)CCN(C)CC1` [meperidine], for which the Equianalgesic dose (in vivo) is given as 135.0 mg.

With `CCC(=O)C(CC(C)N(C)C)(c1ccccc1)c1ccccc1` (stereo not drawn) [methadone], the Equianalgesic dose under setting [4] is reported as 9.0 mg.

As for `CN1CC[C@]23c4c5ccc(O)c4O[C@H]2[C@@H](O)C=C[C@H]3[C@H]1C5` [morphine], where the note is “in vivo”, the Equianalgesic dose was 27.0 mg.

In the case of `O=C1CC[C@@]2(O)[C@H]3Cc4ccc(O)c5c4[C@@]2(CCN3CC2CC2)[C@H]1O5` [naltrexone], in data set [3], the Oral bioavailability is listed as 5-40% and the “Time of absorption following oral administration” value is no more than 1 h. Besides, in data set [1], the Duration of action is roughly 24 h.

As to `COc1ccc2c3c1OC1C(=O)CC[C@@]4(O)[C@@H](C2)N(C)CC[C@]314` (stereo partly drawn) [oxycodone, 4,5-epoxy-14-hydroxy-3-methoxy-17-methylmorphinan-6-one], the Equianalgesic dose under setting [4] is 13.5 mg.
